Where a SMILES comes first, the peptide text is derived from it. [ ]: non-standard residue; d: D form. The star is where a group is joined. Dolaproine = CO[C@@H]([C@@H]1CCCN1)[C@@H](C)C(=O)O; Dil = CC[C@H](C)[C@H](NC)[C@@H](CC(=O)O)OC; X1 = C[C@@H](N*)[C@@H](O)c1ccccc1; NMeV = CN[C@H](C(=O)O)C(C)C
Key:
NCI-H226 = assay: preliminary toxicity study of MMAE in NSCLC line; assay type: cell-based, human
From the text: (§1) There are various linker chemistries for ADCs in use clinically and being investigated, as described in Chapter One. A common motif in ADCs is the valine-citrulline dipeptide which is recognized by human Cathepsin B, a lysosomal enzyme. The full motif typically used is valine-citrulline-p-aminobenzylcarbamate-monomethyl auristin E (vc-MMAE). […] The vc-MMAE structure is used in several FDA approved ADCs (brentuximab vedotin, polatuzumab vedotin, enfortumab vedotin) which target both hematologic and solid tumors.

NCI-H520 [1] = assay: preliminary toxicity study of MMAE in NSCLC line; assay type: cell-based, human
From the text: as §1

NCI-H520 [2] = assay: in vitro cytotoxicity (MTT); assay type: cell-based, human; settings: NCI-H520
Experimental: (§2) We utilized two different incubation methods.
(§3) We then incubated the human cell lines with ADC, and equivalent concentrations of MMAE and native Ab for both 48 hours and 72 hours, the results of which can be seen in FIG. 13A-13E. We expected the results to correlate with the GPR87 expression we observed by flow cytometry. For the normal cell lines, this was the case. As detailed in FIG. 14, the line that was most sensitive to the ADC were the NHLFs, followed by the BEAS-2Bs, and the line with the lowest GPR87 expression, the HUVECs, had the highest IC50 after 72 hours. However, both the NSCLC cell lines had relatively high IC50s given the GPR87 expression status of these lines.
In comparison, NCI-H358 and NCI-H520 see approximately a 4-fold or 2-fold decrease in IC50, respectively, between the two time points. On the other hand, the NCI-H520 line has almost a 10-fold increase in MMAE IC50 at 72 hours compared to 48 hours. The results are likely because the cell lines are different sizes and morphologies and therefore are at different confluencies when plated at the same number of cells per well and are therefore likely to be in different parts of their log growth phase during treatment. For example, the NSCLC lines are typically at very low confluency at a plating density of 5,000 cells per well and may not reach log phase growth until later in the assay. As MMAE affects actively dividing cells, this will affect the results of the assay. While 72 hours was not the optimized end time point for all five cell lines, in order to have a standardized cell plating density, and therefore same ADC:cell ratio, going past 72 hours for some of the cell lines would lead to confluency or death in untreated control cells, which would also confound results. Thus, we incubated the two NSCLC lines for longer periods of time to allow the control cells to become more confluent by the assay endpoint, and to see how this would affect the ADC IC50.
(§4) Standard cytotoxicity assays, like the MTT assays ran here, measure or rather, approximate the cell number at an end point and compare to control untreated cells. Effectively what is measured is a comparison between growth rates. When comparing the efficacy of a drug, particularly a mitotic inhibitor, among different cell lines, division rate differences due to biology, media additives, or seeding density can have a dramatic effect on the IC50, an issue brought up by Hafner et al. They reported with both modeling and in vitro assays how using the IC50 as a metric can actually mask the true mechanism of a drug, for example the microtubule inhibitor paclitaxel. […] GR values indicate whether a drug inhibits growth (0<GR<1), is cytostatic (GR=0) or cytotoxic (GR<0). To calculate this parameter, one needs cell count data for at least two different time points and compares experimental growth rates to the growth rate of control cells. […] Consequently, we reviewed the data at our two time points to perform a similar analysis. We plated at the same seeding density for both the 48 and 72 hour time points. As MTT is an endpoint assay rather than a kinetic assay like MTS, we can use MTT signal as a proxy for cell count. […] Therefore, we excluded this cell line from our analysis. We are technically assessing the effect the ADC or equivalent MMAE has on the growth rate of cells at 60 hours, as we are measuring at t=x±delta t, with x being 60 and delta t being 12 hours. Ideally, we would assess an earlier time point or even multiple time points. […] (FIGS. 19A-19D). Conversely, both NCI-H520 and NCI-H358 are cytotoxic (GR<0) at higher concentrations of ADC at this time point. […] While the GR50 data is still not in agreement with GPR87 expression, it does indicate that this type of analysis at other, earlier, time points is useful in assessing the dynamics of ADC and MMAE cytotoxicity in these cell lines.

BEAS-2B = assay: in vitro cytotoxicity (MTT); assay type: cell-based, human
Experimental: as §2, §3, §4

NHLF = assay: in vitro cytotoxicity (MTT); assay type: cell-based, human
Experimental: as §2, §3, §4

SKBR-3 = assay: in vitro toxicity of αHER2-P3 based ADC; settings: SKBR-3, 72 h, up to 10 μg/ml ADC (equivalent to 100 ng/ml MMAE)
Experimental: (§6) The toxicity of the new ADC was investigated in vitro in the HER2-positive cell lines: SKBR-3 and A549. We treated the cells with up to 10 μg/ml of ADC (equivalent to 100 ng/ml of MMAE) along with native antibodies and free drug at equivalent concentrations.

A549 = assay: in vitro toxicity of αHER2-P3 based ADC; settings: A549, 72 h, up to 10 μg/ml ADC (equivalent to 100 ng/ml MMAE)
Experimental: as §6

NIH-3T3 = assay: in vitro cytotoxicity, negative control line; settings: NIH-3T3, up to 10 μg/ml ADC or equivalent concentrations, 72 hours
Experimental: We incubated NIH-3T3s with up to 10 μg/ml of ADC (67 nM, equivalent to 96 ng/ml of MMAE) along with the native antibody and MMAE alone at equivalent concentrations.

NCI-H358 = assay: internalization of AFC, confocal colocalization with EEA1 / LAMP1; assay type: cell-based, human; settings: NCI-H358, 3 or 10 μg/ml, up to 4 hours
Experimental: (§5) The GPR87 receptor is a G-protein coupled receptor (GPCR), a class of receptors which are activated by an extracellular ligand, initiating activation of associated intracellular G proteins for downstream signaling. Following activation, GPCRs are often internalized and recycled to prevent prolonged stimulation. […] Therefore, we wanted to confirm the uptake of our αGPR87 AFC in the two GPR87 high expressing NSCLC cell lines, NCI-H358 and NCI-H520. We cocultured the cells with 3 μg/ml of AFC for either 30 minutes or 1 hour and fixed and permeabilized the cells before immunofluorescently staining for either the early endosomal marker EEA1 or the lysosomal marker LAMP1. Shown in FIG. 11 are the images from these studies with the AFC signal, either the EEA1 or LAMP1 signal, and DAPI. The merged images are shown as well as the AFC and either EEA1 or LAMP1 signals merged, with colocalization. […] To investigate this further, we increased the concentration of AFC to 10 μg/ml and increased the incubation times to 1, 2, and 4 hours. […] By 2 hours, the AFC now is highly colocalized with the lysosomes and further colocalizes by the 4-hour timepoint while also showing less of a membranous staining pattern. From these analyses, we can determine that the AFC is indeed internalized by the human NSCLC cancer cell lines NCI-H520 and NCI-H358, albeit with different apparent kinetics.

NCI-H520 [3] = assay: as above; assay type: cell-based, human; settings: NCI-H520, 3 μg/ml, 30 minutes and 1 hour
Experimental: as §5

[4] = system: stage four mucinous lung adenocarcinoma patient derived xenograft (PDX); assay: preliminary in vivo trafficking of AFC, IVIS imaging of PDX tumor bearing mouse; settings: 24 hours after tail injection at 2.5 mg/kg
Experimental: We had access to a stage four mucinous lung adenocarcinoma patient derived xenograft (PDX) model. We assessed the GPR87 positivity in the tumor and found it to be positive for GPR87. (FIG. 19A) We ran a preliminary study using the AFC to determine whether the AFC would traffic to the tumor in vivo. Twenty-four hours following injection in the tail at 2.5 mg/kg, the tail, tumor, and major organs were collected and imaged with an IVIS system. […] (FIG. 19B) We moved forward with a preliminary study of the AFC in PDX tumor bearing NSG mice. Four mice were injected with 10 mg/kg of AFC once the tumor reached approximately 200-300 mm^3 and blood was drawn at 4 hours, 3 days, and 2 weeks. The mice were intended to be kept for 2 weeks, but one animal had to be euthanized at day 3 due to tumor size. At the 2-week time point, we euthanized the other animals and harvested the organs. The plasma and organ AFC levels were analyzed by a custom ELISA which detects intact AFC, as described in Chapter Four. The results are seen in FIG. 20A. […] The Ab readout detected a higher concentration of Ab than AFC, however, the general trend of clearance is maintained. […] Whereas we detect <1 μg/ml of AFC at 3 days by either AFC or Ab readout, levels above 10 μg/ml have been reported with similar ADC DAR ratio (˜2) and dose (10 mg/kg). […]

[5] = preliminary AFC clearance and biodistribution in PDX tumor bearing NSG mice, ELISA; assay type: in vivo; settings: 10 mg/kg
Experimental: We had access to a stage four mucinous lung adenocarcinoma patient derived xenograft (PDX) model. We assessed the GPR87 positivity in the tumor and found it to be positive for GPR87. (FIG. 19A) We ran a preliminary study using the AFC to determine whether the AFC would traffic to the tumor in vivo. Twenty-four hours following injection in the tail at 2.5 mg/kg, the tail, tumor, and major organs were collected and imaged with an IVIS system. […] (FIG. 19B) We moved forward with a preliminary study of the AFC in PDX tumor bearing NSG mice. Four mice were injected with 10 mg/kg of AFC once the tumor reached approximately 200-300 mm^3 and blood was drawn at 4 hours, 3 days, and 2 weeks. The mice were intended to be kept for 2 weeks, but one animal had to be euthanized at day 3 due to tumor size. At the 2-week time point, we euthanized the other animals and harvested the organs. The plasma and organ AFC levels were analyzed by a custom ELISA which detects intact AFC, as described in Chapter Four. The results are seen in FIG. 20A. […] We also ran an ELISA with an anti-mouse IgG secondary to determine the total Ab concentrations and assess whether the AFC was being cleared or was not stable (FIG. 20B). The Ab readout detected a higher concentration of Ab than AFC, however, the general trend of clearance is maintained. The concentration even by 3 days is markedly low for our AFC. Whereas we detect <1 μg/ml of AFC at 3 days by either AFC or Ab readout, levels above 10 μg/ml have been reported with similar ADC DAR ratio (˜2) and dose (10 mg/kg). However we are utilizing NSG mice to facilitate the PDX model. It has been reported that NSG mice have enhanced clearance rates of both antibodies and ADCs. However, even in comparison to the clearance rates in NSG mice noted by Li et al., AFC clearance is fast.
We also analyzed the organs at the 3 day and 2 week time point with an ELISA (FIGS. 20C-20D).

[6] = AFC concentration in blood plasma of Balb/c mice, ELISA; assay type: in vivo; settings: 10 mg/kg, samples at 1 hour, 7 and 14 days
Experimental: To make sure that the coiled-coil has no significant effect on antibody clearance, we performed a preliminary study of AFC concentration in blood plasma (FIG. 33). 10 mg/kg AFC was injected into two Balb/c mice. Blood samples were collected at 1 hour, 7 and 14 days and examined for AFC concentration by ELISA assay.

Molecule	IC50 (NCI-H226)	IC50 (NCI-H520 [1])	increase in IC50 at 72 hours compared to 48 hours (NCI-H520 [2])	GR50 (BEAS-2B)	GR50 (NHLF)	cell viability (SKBR-3)	cell viability (A549)	cytotoxicity (NIH-3T3)	internalization (NCI-H358)	internalization (NCI-H520 [3])	fluorescence of tail, tumor and major organs [4]	plasma concentration at 3 days ([5]; by either AFC or Ab readout)	concentration in tumor and organs ([5]; compared to liver, kidney, spleen, heart and lung, preliminary)	clearance ([5]; plasma at 4 hours, 3 days, 2 weeks)	AFC concentration in plasma [6]
CC[C@H](C)[C@@H]([C@@H](CC(=O)N1CCC[C@H]1[C@H](OC)[C@@H](C)C(=O)N[C@H](C)[C@@H](O)c1ccccc1)OC)N(C)C(=O)[C@@H](NC(=O)[C@@H](NC)C(C)C)C(C)C [MMAE, Monomethyl auristatin E, reference compound] (H-[NMeV]V[Dil][Dolaproine]-X1)	0.294 nM	0.042 nM	~10 fold	cannot be calculated	do not reach that value	20%	20%	highly toxic							
AFC (conjugate) heavy: EVQLQQSGPDLVKPGASMKISCKASGYSFTDYTMHWVKQSHGKNFEWIGLINPYNDGTTYNQKFKGKATLTVDKSSSTAYMELLSLTSEDSAVYYCASLDYWGQGTSVTVSSAKTTPPSVYPLAPGSAAQTNSMVTLGCLVKGYFPEPVTVTWNSGSLSSGVHTFPAVLQSDLYTLSSSVTVPSSTWPSETVTCNVAHPASSTKVDKKIVPRDCGCKPCICTVPEVSSVFIFPPKPKDVLTITLTPKVTCVVVDISKDDPEVQFSWFVDDVEVHTAQTQPREEQFNSTFRSVSELPIMHQDWLNGKEFKCRVNSAAFPAPIEKTISKTKGRPKAPQVYTIPPPKEQMAKDKVSLTCMITDFFPEDITVEWQWNGQPAENYKNTQPIMDTDGSYFVYSKLNVQKSNWEAGNTFTCSVLHEGLHNHHTEKSLSHSPGKGGGGGMKLKKIKSVLKKIKSVLKKIKSVLKKIKSVVGER light: DVVMTQTPLSLPVSLGDQASISCRSSQSLVHSSGNTYLHWYLQKPGQSPKLLIYKVSNRFSGVPDRFSGSGSGTDFTLKISRVEAEDLGVYFCSQSTHVPYTFGGGTKLEIKRADAAPTVSIFPPSSEQLTSGGASVVCFLNNFYPKDINVKWKIDGSERQNGVLNSWTDQDSKDSTYSMSSTLTLTKDEYERHNSYTCEATHKTSTSPIVKSFNRNEC peptide: MKLEEIVSELEEIVSELEEIVKELEEIVYEVGER									internalized	internalized	tail (injection site) and tumor both showed high fluorescence, with little fluorescence in the major organs	< 1000 ng/mL	highest in the tumor at 3 days and at 2 weeks	rapidly cleared	A small amount of AFC was detected in plasma after 7 days

— patent US12281161B2, “Polypeptides and uses thereof” (TRUSTEES OF BOSTON UNIVERSITY, priority 2021, dated 2025)
